How the values were obtained:
GmNFR5a^ECDF124R = test: MST binding to GmNFR5a^ECD mutant F124R; set-up: species or system soybean (Glycine max); details: ligand dp6
Source text: (§1) The ectodomains of GmCERK1, GmNFR5a, and mutants were cloned into the yeast expression vector pPICZαA (Thermo Fisher Scientific, Shanghai, China) through the double digestion and ligation using the restriction endonuclease EcoRI/XbaI (NEB, Suzhou, China) and T4 ligase. Then, the linearized recombinant plasmid pPICZαA‐GmCERK1 and pPICZαA‐GmNFR5a were transformed into P. pastoris X‐33. The positive colonies were selected on YPDS medium (1% w/v yeast extract, 2% w/v peptone, 2% w/v glucose, 2% w/v agar, 100 μg/mL antibiotic Zeocin (Thermo Fisher Scientific)) plates and verified by direct DNA sequencing. Protein expression was carried out initially in BMGY media (100 mM potassium phosphate pH 6.0, 1.34% w/v YNB, 4 × 10^−5% w/v biotin, 1% v/v glycerol) at 28°C with shaking (180 rpm) until the OD600 reached 2.0–6.0. The cell pellet was transferred into BMMY medium (100 mM potassium phosphate pH 6.0, 1.34% w/v YNB, 4 × 10^−5% w/v biotin, 0.5% v/v methanol) and continuously supplied with the addition of 0.5% (v/v) methanol every day for 5 d. […]
(§2) GmCERK1^ECD, GmNFR5a^ECD, and all mutants were labeled with a fluorescent dye using the Monolith Protein Labeling Kit RED‐NHS second Generation (MO‐L011). […] The data were analyzed and fitted by plotting ligand concentrations against bound fractions using the MO.Affinity Analysis v3.0.5 software. […]

GmNFR5a^ECDL153R = test: MST binding to GmNFR5a^ECD mutant L153R; set-up: species or system soybean (Glycine max); details: ligand dp6
Source text: as §1, §2

[1] = system: phosphorylated MPK6/3/4 (P42/44) in soybean leaf discs; test: MAPK phosphorylation immunoblot in soybean leaf discs; type: cell-based, soybean (Glycine max); details: soybean leaf discs at 5 min; anti-phospho P42/44 immunoblot; vs control dH2O
Procedure: To measure the oxidation burst, leaf discs (Ø 0.5 cm) collected from 2-week-old soybean (cultivar Williams) were floated overnight in 200 μL sterile H2O in a 96-well plate. The H2O was replaced with 200 μL reaction buffer containing luminol/peroxidase ([…] luminol, 10 mg/mL peroxidase) and chitooligosaccharides treatments (50 mg/L). flg22 was used as a positive control. The luminescence was measured using a GLOMAX96 microplate luminometer (Promega, Madison, WI, USA). The experiments for MAPK activation were carried out as described previously ([[…] et al., 2014]). The MAPK activation was determined by immunoblots with anti-phospho-p44/42 MAPK antibody (#4370; Cell Signaling, Boston, MA, USA).

N[C@H]1[C@H](O[C@H]2[C@H](O)[C@@H](N)[C@H](O[C@H]3[C@H](O)[C@@H](N)[C@H](O[C@H]4[C@H](O)[C@@H](N)[C@H](O[C@H]5[C@H](O)[C@@H](N)[C@H](O[C@H]6[C@H](O)[C@@H](N)C(O)O[C@@H]6CO)O[C@@H]5CO)O[C@@H]4CO)O[C@@H]3CO)O[C@@H]2CO)O[C@H](CO)[C@@H](O)[C@@H]1O (stereo partly drawn) [CSOS (dp6), chitosan oligosaccharide]
interaction with GmNFR5a^ECDF124R (GmNFR5a^ECDF124R): cannot interact | interaction with GmNFR5a^ECDL153R (GmNFR5a^ECDL153R): cannot interact | MAPK phosphorylation [1]: can induce MAPK activity
